Drawing on DBAASP, this text covers MIC for nine compounds.

Converted amounts (≈) assume the structure as drawn.

Some test systems named below: Candida krusei ATCC 6258; Candida albicans SC5314; Escherichia coli UB1005; Yersinia pestis KIM pYV; Escherichia coli ESBL; Klebsiella pneumoniae.
Holding throughout (experiment): ≥ marks a high value that may be exact or a test limit, other limits are often not marked, values filed in µg/mL are converted to µM
Test [1] has as its system Staphylococcus aureus ATCC 25923.
Test [2] concerns Candida albicans ATCC 90028.
Test [3] deals with Bacillus subtilis ATCC 19659.
Test [4] has as its system Pseudomonas aeruginosa ATCC 27853.
The subject of test [5] is Escherichia coli ATCC 25922.
Test [6] relates to Candida parapsilosis ATCC 22019.
For test [7], the system named is Candida tropicalis ATCC 13803.
In test [8] the test system is Escherichia coli DH5alpha.
Test [9] relates to Bacillus subtilis ATCC 6633.
The test system of test [10] is Klebsiella pneumoniae ATCC 27736.
Test [11] deals with Escherichia coli ATCC 10536.
Test [12] relates to Staphylococcus aureus ATCC 9144.
Test [13] concerns Pseudomonas aeruginosa ATCC BAA-427.
In test [14] the test system is Salmonella typhimurium ATCC 7731.
Test [15] relates to Staphylococcus epidermidis ATCC 12228.
Test [16] relates to Enterococcus faecalis ATCC 29212.
For test [17], the system named is Pseudomonas aeruginosa PAO1.
In test [18] the test system is Bacillus subtilis CMCC 63501.
Test [19] has as its system Salmonella enterica subsp. enterica serovar Typhimurium ATCC 14028.
In test [20] the test system is Brucella abortus 9.49 (per-).
Test [21] deals with Acinetobacter baumannii ATCC 19606.
Test [22] concerns Escherichia coli ATCC 23716.
For test [23], the system named is Bordetella bronchiseptica CUN 11844-99.
In test [24] the test system is Staphylococcus aureus ATCC 43300.
Test [25] deals with Pseudomonas aeruginosa CUN 4158-02.
Test [26] concerns Staphylococcus aureus NBRC 12732.
Test [27] relates to Escherichia coli NBRC 14237.
Test [28] concerns Pseudomonas aeruginosa NBRC 12582.
The subject of test [29] is Micrococcus luteus NBRC 12708.
For test [30], the system named is Salmonella enterica subsp. enterica serovar Pullorum C79-13.
Test [31] relates to Staphylococcus aureus ATCC 29213.

The term MIC denotes the smallest concentration in the dilution series that meets the test's criterion for growth inhibition. Regarding `CC[C@H](C)[C@H](NC(C)=O)C(=O)N[C@@H](Cc1ccccc1)C(=O)NCC(=O)N[C@@H](C)C(=O)N[C@H](C(=O)N[C@@H](Cc1c[nH]c2ccccc12)C(=O)N1CCC[C@H]1C(=O)N[C@@H](CC(C)C)C(=O)N[C@@H](C)C(=O)N[C@@H](CC(C)C)C(=O)NCC(=O)N[C@@H](C)C(=O)N[C@@H](CC(C)C)C(=O)N[C@@H](CCCCN)C(=O)N[C@@H](CC(N)=O)C(=O)N[C@@H](CC(C)C)C(=O)N[C@H](C(=O)N[C@@H](CCCCN)C(N)=O)[C@@H](C)CC)[C@@H](C)CC` [IFGAIWPLALGALKNLIK], the MIC in test [1] was 4 µM (≈ 7.92 µg/mL); in [2], at least 32 µM; against Candida krusei ATCC 6258, at least 125 µM; in [3], 4 µM (≈ 7.92 µg/mL); in test [4], above 128 µM; in [5], 128 µM (≈ 253 µg/mL). The compound further displayed an MIC in test [6] of at least 125 µM.

Regarding `NCCCC[C@H](NC(=O)[C@@H](N)CS)C(=O)N[C@@H](Cc1ccc(O)cc1)C(=O)N[C@@H](CCCN=C(N)N)C(=O)N[C@@H](Cc1c[nH]c2ccccc12)C(=O)N[C@@H](CCCN=C(N)N)C(=O)O` [CKYRWR], the values for the MIC (against Candida albicans SC5314; in [7]; in [6]) were at least 439 µM, at least 220 µM and at least 220 µM, respectively.

For the compound `CC[C@H](C)[C@H](NC(=O)CN)C(=O)NCC(=O)N[C@@H](C)C(=O)N[C@H](C(=O)N[C@H](C(=O)N[C@@H](CCCCN)C(=O)N[C@H](C(=O)N[C@@H](CC(C)C)C(=O)N[C@H](C(=O)N[C@H](C(=O)NCC(=O)N[C@H](C(=O)N1CCC[C@H]1C(=O)N[C@@H](C)C(=O)N[C@H](C(=O)N[C@H](C(=O)N[C@@H](CO)C(=O)N[C@@H](Cc1c[nH]c2ccccc12)C(=O)N[C@H](C(=O)N[C@@H](CCCCN)C(=O)N[C@@H](CCCN=C(N)N)C(=O)N[C@@H](CCCCN)C(=O)N[C@@H](CCCN=C(N)N)C(=O)N[C@@H](CCC(N)=O)C(=O)N[C@@H](CCC(N)=O)C(N)=O)[C@@H](C)CC)[C@@H](C)CC)C(C)C)C(C)C)[C@@H](C)O)[C@@H](C)O)C(C)C)C(C)C)C(C)C` [GIGAVVKVLTTGVPAVISWIKRKRQQ], the minimal inhibitory concentration (MIC) is 3.5 µM (≈ 9.82 µg/mL) in [8]; 2.5 µM (≈ 7.01 µg/mL) in test [9]; 2.1 µM (≈ 5.89 µg/mL) in [10]; 3.3 µM (≈ 9.25 µg/mL) in test [11]; 3 µM (≈ 8.41 µg/mL) in test [12]; 12 µM (≈ 33.7 µg/mL) in test [13].

Take `CC[C@H](C)[C@H](NC(=O)[C@H](CCCN=C(N)N)NC(=O)[C@@H](N)Cc1ccccc1)C(=O)N[C@@H](CCCN=C(N)N)C(=O)N[C@H](C(=O)N[C@@H](CCCN=C(N)N)C(=O)N[C@H](C(N)=O)C(C)C)C(C)C` [FRIRVRV]: the minimum inhibitory concentration (MIC) in [14] is at least 32 µM; in test [15], 32 µM (≈ 30.2 µg/mL); in test [16] it was 32 µM (≈ 30.2 µg/mL); in test [17] it was 32 µM (≈ 30.2 µg/mL); in [4], 16 µM (≈ 15.1 µg/mL); in [18], 16 µM (≈ 15.1 µg/mL). Also, the MIC was at least 32 µM against Escherichia coli UB1005 and 16 µM (≈ 15.1 µg/mL) in [19].

With `CC[C@H](C)[C@H](N)C(=O)N[C@@H](CO)C(=O)N[C@@H](CCCCN)C(=O)N[C@@H](CCCN=C(N)N)C(=O)N[C@H](C(=O)N[C@@H](CC(C)C)C(=O)N[C@H](C(=O)NCC(=O)N[C@@H](CCCCN)C(=O)N[C@@H](CCCCN)C(N)=O)[C@@H](C)O)[C@@H](C)CC` [ISKRILTGKK], the MIC in [20] was at least 56 µM; in [21], above 224 µM; in test [22], at least 224 µM; with Yersinia pestis KIM pYV, at least 224 µM; in test [23] it was at least 224 µM; in [24], above 224 µM. Further, the MIC in [5] was above 224 µM; in test [25], at least 224 µM.

`CC[C@H](C)[C@H](NC(=O)[C@@H](NC(=O)CN)C(C)C)C(=O)N[C@@H](CCCCN)C(=O)N[C@@H](C)C(=O)N[C@@H](C)C(=O)N[C@@H](CCCCN)C(=O)N[C@@H](CCCCN)C(=O)N[C@H](C(=O)N[C@H](C(=O)N[C@@H](CC(N)=O)C(=O)N[C@H](C(=O)N[C@@H](CC(C)C)C(=O)N[C@@H](CCCCN)C(=O)N[C@@H](CC(N)=O)C(=O)N[C@@H](CC(C)C)C(=O)N[C@@H](Cc1ccccc1)C(N)=O)C(C)C)C(C)C)C(C)C` [GVIKAAKKVVNVLKNLF]: the MIC is at least 34.8 µM in the test with Candida albicans SC5314, at least 69.5 µM in test [2], at least 34.8 µM in the test with Candida krusei ATCC 6258 and at least 34.8 µM in [6].

Take `CC[C@H](C)[C@H](NC(=O)CNC(=O)[C@H](C)NC(=O)[C@H](CC(C)C)NC(=O)[C@H](CC(C)C)NC(=O)CNC(=O)[C@@H]1CCCN1C(=O)[C@H](CC(C)C)NC(=O)[C@H](CC(C)C)NC(=O)[C@H](CC(N)=O)NC(=O)[C@H](CC(C)C)NC(=O)[C@H](CC(C)C)NC(=O)[C@@H](N)CCCCN)C(=O)N[C@@H](Cc1ccccc1)C(N)=O` [KLLNLLPGLLAGIF]: the MIC in test [26] was 12.5 µM (≈ 18.5 µg/mL); in test [27], 12.5 µM (≈ 18.5 µg/mL); in [28] it was at least 50 µM; in [29], 25 µM (≈ 37 µg/mL).

In the case of `CC(C)C[C@H](NC(=O)[C@H](CCCCN)NC(=O)CNC(=O)[C@H](CCCCN)NC(=O)[C@H](Cc1ccccc1)NC(=O)[C@H](CCCCN)NC(=O)[C@H](Cc1c[nH]c2ccccc12)NC(=O)[C@H](CCCN=C(N)N)NC(=O)[C@H](Cc1ccccc1)NC(=O)[C@H](CCCN=C(N)N)NC(=O)[C@H](CCCN=C(N)N)NC(=O)[C@H](Cc1ccc(O)cc1)NC(=O)[C@H](CO)NC(=O)[C@H](CCCCN)NC(=O)CN)C(=O)N[C@@H](Cc1ccccc1)C(=O)N[C@@H](CC(C)C)C(=O)N[C@@H](Cc1ccccc1)C(=O)NCC(N)=O` [GKSYRRFRWKFKGKLFLFG], the minimal inhibitory concentration (MIC) worked out at 4.67 µM (≈ 11.3 µg/mL) against Escherichia coli ESBL and 6.61 µM (≈ 16 µg/mL) in the test on Klebsiella pneumoniae.

As to `CC(C)C[C@H](NC(=O)[C@H](CCCCN)NC(=O)[C@H](CCCCN)NC(=O)[C@H](C)NC(=O)[C@@H](NC(=O)[C@H](CCCCN)NC(=O)[C@H](CO)NC(=O)[C@H](CC(C)C)NC(=O)[C@H](Cc1c[nH]c2ccccc12)NC(=O)[C@H](CC(C)C)NC(=O)[C@H](CCCCN)NC(=O)[C@H](CCCCN)NC(=O)[C@H](C)NC(=O)[C@@H](NC(=O)[C@H](CCCCN)NC(=O)[C@H](CO)NC(=O)[C@H](CC(C)C)NC(=O)[C@@H](N)Cc1c[nH]c2ccccc12)[C@@H](C)O)[C@@H](C)O)C(N)=O` [WLSKTAKKLWLSKTAKKL], the MIC is at least 32 µM in test [14]; 128 µM (≈ 273 µg/mL) in test [15]; 16 µM (≈ 34.1 µg/mL) in test [30]; 128 µM (≈ 273 µg/mL) in [24]; 16 µM (≈ 34.1 µg/mL) in [4]; at least 64 µM in test [18]. Moreover, the MIC with Escherichia coli UB1005 came to 8 µM (≈ 17 µg/mL); in [5] it was 8 µM (≈ 17 µg/mL); in test [31], 128 µM (≈ 273 µg/mL).
